The values below come from PubChem BioAssay (NCI).

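These data come from cells grown in 96-well plates and exposed to compound for 48 hours at five concentrations. GI50 is the concentration that inhibits growth by half. At the TGI there is no net growth.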

Among the test systems are KM12 colon; MCF7 breast; HCC-2998 colon; MALME-3M melanoma; RPMI-8226 leukemia; SF-268 CNS; SR leukemia; CAKI-1 renal.
Assay in all cases: growth of human tumour cells (NCI), 48 h

Consider `O=C(/C=C/c1ccco1)c1ccc(Nc2nc(Nc3ccc(F)cc3)nc(Nc3ccc(Cl)cc3)n2)cc1`, for which the GI50 in the experiment on KM12 colon was 16.7 µM; in the experiment on MCF7 breast, 1.84 µM; with HCC-2998 colon it was 38.1 µM; in the experiment on MALME-3M melanoma it was 31.9 µM; with RPMI-8226 leukemia, 2.75 µM; with SF-268 CNS, 34.8 µM. The GI50 in the experiment with SR leukemia is greater than 20.7 µM; in the experiment on CAKI-1 renal, 19.2 µM. Further, the TGI is 43.4 µM in the experiment on KM12 colon; 34.1 µM with MCF7 breast; greater than 100 µM with HCC-2998 colon; greater than 66.2 µM in the experiment with MALME-3M melanoma; greater than 82.4 µM in the experiment with RPMI-8226 leukemia; greater than 86.4 µM with SF-268 CNS. In addition, the TGI was greater than 44.5 µM in the experiment on SR leukemia and greater than 54 µM in the experiment on CAKI-1 renal.
As for `Cc1ccc(Nc2nc(NCCO)c3ccccc3n2)cc1C`, the GI50 is 8.06 µM in the experiment on KM12 colon; 1.66 µM in the experiment with MCF7 breast; 2.44 µM in the experiment with HCC-2998 colon; 1.85 µM with MALME-3M melanoma; 2.55 µM in the experiment with RPMI-8226 leukemia; 9.27 µM in the experiment with SF-268 CNS. Moreover, the GI50 was 2.28 µM in the experiment with SR leukemia and 4.66 µM with CAKI-1 renal. Besides, the TGI came to 20.5 µM in the experiment on KM12 colon; 16.9 µM in the experiment with MCF7 breast; 5.96 µM in the experiment with HCC-2998 colon; 3.77 µM with MALME-3M melanoma; 9.46 µM in the experiment on RPMI-8226 leukemia; 22.2 µM in the experiment with SF-268 CNS. In addition, the TGI in the experiment with SR leukemia is 6.08 µM; in the experiment with CAKI-1 renal, 17.8 µM.
Take `C[Si](C)(C)C#CCO[Si](C)(C)C`: the TGI in the experiment with KM12 colon is greater than 89.3 µM; with MCF7 breast it was greater than 100 µM; in the experiment on HCC-2998 colon it was greater than 100 µM; with MALME-3M melanoma it was greater than 100 µM; in the experiment with RPMI-8226 leukemia, greater than 79.8 µM; in the experiment on SF-268 CNS it was greater than 89.3 µM. The TGI was greater than 61.5 µM with SR leukemia and greater than 100 µM with CAKI-1 renal.
Consider `O=C1OC(c2ccco2)=N/C1=C\c1ccc(Cl)c(Cl)c1`, for which the TGI in the experiment on KM12 colon, in the experiment on MCF7 breast, with HCC-2998 colon, in the experiment with MALME-3M melanoma, in the experiment with RPMI-8226 leukemia and in the experiment on SF-268 CNS was greater than 100 µM in each case. The TGI in the experiment on SR leukemia and in the experiment with CAKI-1 renal was greater than 100 µM in each case.
Regarding `C=C1C(=O)O[C@@H]2C[C@@H]1CC[C@]1(C)O[C@H]1CC[C@@]1(C)O[C@@H]1CC[C@@]2(C)O`, the GI50 in the experiment on KM12 colon was greater than 100 µM; with MCF7 breast, 99.8 µM; in the experiment with HCC-2998 colon it was 6.49 µM; in the experiment with MALME-3M melanoma it was 22.3 µM; in the experiment with RPMI-8226 leukemia it was 12.4 µM; with SF-268 CNS, greater than 100 µM. In addition, the GI50 was 3.49 µM in the experiment on SR leukemia and 27.3 µM in the experiment on CAKI-1 renal. Moreover, the TGI in the experiment on KM12 colon was greater than 100 µM; in the experiment on MCF7 breast, greater than 100 µM; in the experiment with HCC-2998 colon it was 24.4 µM; in the experiment on MALME-3M melanoma it was 71.2 µM; in the experiment on RPMI-8226 leukemia, 42.7 µM; in the experiment with SF-268 CNS, greater than 100 µM. For the same compound, the TGI was determined as 31.1 µM with SR leukemia and 79.9 µM in the experiment on CAKI-1 renal.
As for `O=C(Nc1ccc(Cl)c([N+](=O)[O-])c1)Nc1nc2ccccc2s1`, the GI50 was 2.82 µM in the experiment with KM12 colon; 3.02 µM with MCF7 breast; 3.03 µM in the experiment with HCC-2998 colon; 2.62 µM with MALME-3M melanoma; 2.93 µM with RPMI-8226 leukemia; 4.49 µM with SF-268 CNS. Moreover, the GI50 is 3.94 µM in the experiment with SR leukemia and 2.08 µM with CAKI-1 renal. The TGI amounted to 8.32 µM in the experiment on KM12 colon; 15.5 µM in the experiment with MCF7 breast; 13.1 µM in the experiment on HCC-2998 colon; 7.36 µM in the experiment with MALME-3M melanoma; 10.5 µM in the experiment with RPMI-8226 leukemia; 16.6 µM in the experiment with SF-268 CNS. Besides, the TGI with SR leukemia amounted to 16.4 µM; with CAKI-1 renal it was 6.46 µM.
For `O=[N+]([O-])c1ccc(N2CCN(Cc3ccccc3)CC2)c2c1no[n+]2[O-]`, the GI50 in the experiment on KM12 colon was 1.48 µM; in the experiment with MCF7 breast, 0.803 µM; in the experiment with HCC-2998 colon, 1.78 µM; with MALME-3M melanoma, 1.6 µM; with RPMI-8226 leukemia, 1.76 µM; in the experiment on SF-268 CNS it was 1.42 µM. The GI50 is 0.0751 µM in the experiment with SR leukemia and 1.42 µM with CAKI-1 renal. Also, the TGI came out at 3.05 µM in the experiment on KM12 colon; 2.44 µM in the experiment on MCF7 breast; 3.33 µM in the experiment on HCC-2998 colon; 3.3 µM in the experiment with MALME-3M melanoma; 4.64 µM in the experiment on RPMI-8226 leukemia; 3.22 µM in the experiment on SF-268 CNS. Besides, the TGI turned out to be 0.973 µM in the experiment with SR leukemia and 3.48 µM with CAKI-1 renal.
`CNc1ccccc1C(=O)N/N=C/C=C/c1ccccc1`: the GI50 in the experiment with KM12 colon was 0.547 µM; with MCF7 breast, 0.49 µM; in the experiment with HCC-2998 colon, 8.82 µM; in the experiment with MALME-3M melanoma, 9.91 µM; in the experiment on RPMI-8226 leukemia, 2.68 µM; in the experiment with SF-268 CNS it was 7.23 µM. The values for the GI50 in the experiment on SR leukemia and in the experiment on CAKI-1 renal were 0.402 µM and 2.79 µM, respectively. Further, the TGI in the experiment on KM12 colon was 50.5 µM; in the experiment with MCF7 breast, greater than 100 µM; in the experiment with HCC-2998 colon, 36.3 µM; with MALME-3M melanoma, 97.4 µM; in the experiment on RPMI-8226 leukemia, greater than 100 µM; with SF-268 CNS, greater than 100 µM. The results for the TGI in the experiment on SR leukemia and with CAKI-1 renal were greater than 88.8 µM and greater than 100 µM, respectively.
Regarding `Oc1c(CN2CCC(N3CCOCC3)CC2)cc(Cc2cc(CN3CCC(N4CCOCC4)CC3)c(O)c3ncccc23)c2cccnc12`, the GI50 in the experiment with KM12 colon is 0.428 µM; with MCF7 breast it was 0.543 µM; in the experiment on HCC-2998 colon, 1.52 µM; with MALME-3M melanoma, 4.22 µM; with RPMI-8226 leukemia it was 3.77 µM; with SF-268 CNS, 0.343 µM. Also, the GI50 in the experiment with SR leukemia is 0.593 µM; with CAKI-1 renal it was 0.643 µM. In addition, the TGI in the experiment with KM12 colon is greater than 100 µM; with MCF7 breast it was greater than 100 µM; in the experiment with HCC-2998 colon it was 13.5 µM; in the experiment with MALME-3M melanoma, 26.5 µM; in the experiment on RPMI-8226 leukemia, greater than 100 µM; in the experiment on SF-268 CNS, 38.1 µM. Moreover, the results for the TGI in the experiment with SR leukemia and with CAKI-1 renal were 20.5 µM and 21.2 µM, respectively.
As for `CC/C=C\C[C@H](O)C/C=C1/C(=O)C=C[C@@H]1C/C=C\CCCC(=O)NC(C)C`, the GI50 in the experiment with KM12 colon is 1.91 µM; in the experiment with MCF7 breast it was 2.18 µM; in the experiment with HCC-2998 colon, 1.87 µM; in the experiment with MALME-3M melanoma, 2.4 µM; with RPMI-8226 leukemia it was 2.73 µM; in the experiment with SF-268 CNS it was 3 µM. Also, the GI50 with SR leukemia was 2.43 µM; in the experiment with CAKI-1 renal, 2.08 µM. In addition, the TGI in the experiment on KM12 colon amounted to 4.89 µM; with MCF7 breast, 13.9 µM; with HCC-2998 colon, 3.42 µM; in the experiment with MALME-3M melanoma it was 6.69 µM; with RPMI-8226 leukemia, 7.02 µM; with SF-268 CNS, 13.3 µM. The TGI was found to be 8.33 µM with SR leukemia and 4.39 µM with CAKI-1 renal.
Turning to `CCC1=C(C)/C(=C/c2[nH]c(C)c(C(=O)CCCCC(=O)OC)c2C)N=C1c1ccc[nH]1`, the GI50 was 16.6 µM with KM12 colon; 12.1 µM in the experiment with MCF7 breast; 22.3 µM in the experiment on HCC-2998 colon; 13.7 µM in the experiment on MALME-3M melanoma; 3.37 µM with RPMI-8226 leukemia; 7.15 µM in the experiment with SF-268 CNS. Further, the GI50 in the experiment with SR leukemia is 1.3 µM; in the experiment with CAKI-1 renal, 20.6 µM. Also, the TGI with KM12 colon is greater than 77.4 µM; with MCF7 breast, 46.4 µM; with HCC-2998 colon it was 54.1 µM; in the experiment with MALME-3M melanoma, 45.1 µM; in the experiment with RPMI-8226 leukemia, 13.9 µM; with SF-268 CNS, 47.7 µM. Also, the TGI amounted to 5.49 µM with SR leukemia and 45.8 µM with CAKI-1 renal.
Take `O=C(Nc1ccc(-c2nc3cc4ccccc4cc3[nH]2)cc1)c1cccc(Br)c1`: the GI50 in the experiment with KM12 colon was 7.24 µM; with MCF7 breast, 1.97 µM; in the experiment on HCC-2998 colon, 31.1 µM; with MALME-3M melanoma it was 12.8 µM; in the experiment with RPMI-8226 leukemia, 10.6 µM; in the experiment with SF-268 CNS, 9.22 µM. Moreover, the GI50 was 2.34 µM in the experiment with SR leukemia and 27.5 µM with CAKI-1 renal. Also, the TGI was 32.4 µM in the experiment on KM12 colon; 10.4 µM with MCF7 breast; greater than 100 µM in the experiment on HCC-2998 colon; 28.9 µM with MALME-3M melanoma; 56.8 µM with RPMI-8226 leukemia; 26.8 µM in the experiment on SF-268 CNS. In addition, the values for the TGI in the experiment with SR leukemia and with CAKI-1 renal were 8.66 µM and 74.8 µM, respectively.
With `Oc1ccc(C(c2ccccc2)(c2ccccc2)c2ccccc2)cc1`, the GI50 is 19.3 µM with KM12 colon; 10.3 µM in the experiment on MCF7 breast; 12.7 µM in the experiment with HCC-2998 colon; 27.2 µM in the experiment with MALME-3M melanoma; 22 µM with RPMI-8226 leukemia; 21.5 µM with SF-268 CNS. Moreover, the GI50 is 25.4 µM with SR leukemia and 14 µM with CAKI-1 renal. The TGI was 48.7 µM in the experiment with KM12 colon; 34.3 µM in the experiment on MCF7 breast; 25.7 µM in the experiment on HCC-2998 colon; 68.9 µM with MALME-3M melanoma; 45.5 µM in the experiment on RPMI-8226 leukemia; 69.4 µM in the experiment on SF-268 CNS. Moreover, the TGI came out at 56.9 µM with SR leukemia and 29.6 µM in the experiment on CAKI-1 renal.
In the case of `CCNC(=O)C[C@@H]1N=C(c2ccc(Cl)cc2)c2cc(OC)ccc2-n2c(C)nnc21`, the GI50 in the experiment with KM12 colon was 27.1 µM; with MCF7 breast, 0.532 µM; in the experiment on HCC-2998 colon, 5.77 µM; in the experiment on MALME-3M melanoma it was 3.49 µM; in the experiment on RPMI-8226 leukemia, 0.367 µM; in the experiment with SF-268 CNS it was greater than 53.6 µM. Besides, the GI50 is 0.567 µM with SR leukemia and 0.584 µM with CAKI-1 renal. In addition, the TGI is greater than 100 µM with KM12 colon; greater than 100 µM in the experiment with MCF7 breast; greater than 100 µM in the experiment with HCC-2998 colon; greater than 100 µM in the experiment on MALME-3M melanoma; 5.74 µM in the experiment on RPMI-8226 leukemia; greater than 100 µM in the experiment with SF-268 CNS. In addition, the TGI in the experiment on SR leukemia and in the experiment with CAKI-1 renal was greater than 100 µM in each case.
